# Measured values from ChEMBL document CHEMBL1153323, “Design, synthesis, and evaluation of peptidomimetics containing Freidinger lactams as STAT3 inhibitors” (Bioorg Med Chem Lett, 2009).
# pKi: −log10 of the molar value. Where a SMILES comes first, the peptide text is derived from it. [ ]: non-standard residue; d: D form. The star is where a group is joined. pY = N[C@@H](Cc1ccc(OP(=O)(O)O)cc1)C(=O)O; Cbz = O=C(OCc1ccccc1)*; NHBn = c1ccc(CN*)cc1
# Target: Signal transducer and activator of transcription 3 (Homo sapiens, UniProt P40763)
# Sequence (P40763 whole entry): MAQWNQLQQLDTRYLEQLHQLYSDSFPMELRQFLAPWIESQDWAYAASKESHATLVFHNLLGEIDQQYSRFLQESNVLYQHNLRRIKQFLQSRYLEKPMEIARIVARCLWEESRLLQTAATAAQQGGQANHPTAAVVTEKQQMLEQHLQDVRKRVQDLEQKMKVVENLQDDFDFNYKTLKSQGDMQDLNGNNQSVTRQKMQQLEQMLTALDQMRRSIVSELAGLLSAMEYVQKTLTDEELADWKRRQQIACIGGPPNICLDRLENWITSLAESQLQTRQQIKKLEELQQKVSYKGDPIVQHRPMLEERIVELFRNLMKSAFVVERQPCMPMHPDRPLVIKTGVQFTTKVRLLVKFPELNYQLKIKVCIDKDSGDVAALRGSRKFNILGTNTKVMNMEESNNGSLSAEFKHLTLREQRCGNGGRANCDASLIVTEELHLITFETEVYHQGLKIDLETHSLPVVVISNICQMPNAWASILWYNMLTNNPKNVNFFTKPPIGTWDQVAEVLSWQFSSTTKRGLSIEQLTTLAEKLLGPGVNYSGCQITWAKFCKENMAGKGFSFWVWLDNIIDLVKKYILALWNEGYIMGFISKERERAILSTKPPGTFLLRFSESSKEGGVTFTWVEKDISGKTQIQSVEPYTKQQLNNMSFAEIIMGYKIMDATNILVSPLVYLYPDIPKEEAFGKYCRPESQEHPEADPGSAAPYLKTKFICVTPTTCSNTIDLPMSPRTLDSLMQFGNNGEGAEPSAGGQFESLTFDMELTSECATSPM
# Assay: Displacement of fluorescent tagged beta-(Ala)-beta-(Ala)-G-pYLPQTV from human recombinant STAT3 by fluorescence polarization assay
row,SMILES,pKi
1,NC(=O)CC[C@H](NC(=O)CN1CCCC[C@H](NC(=O)[C@H](Cc2ccc(OP(=O)(O)O)cc2)NC(=O)OCc2ccccc2)C1=O)C(=O)NCc1ccccc1,6.72
2,NC(=O)CC[C@H](NC(=O)CN1CCC[C@H](NC(=O)[C@H](Cc2ccc(OP(=O)(O)O)cc2)NC(=O)OCc2ccccc2)C1=O)C(=O)NCc1ccccc1,5.50
3,CC(C)C[C@H](NC(=O)[C@H](Cc1ccc(OP(=O)(O)O)cc1)NC(=O)OCc1ccccc1)C(=O)N1CCC[C@H]1C(=O)N[C@@H](CCC(N)=O)C(=O)NCc1ccccc1 (Cbz-[pY]LPQ-NHBn),6.46
